Assay results reported in publication PMC4832822, “Investigating the Influence of (Deoxy)fluorination on the Lipophilicity of Non‐UV‐Active Fluorinated Alkanols and Carbohydrates by a New log P Determination Method” (Angewandte Chemie (International Ed. in English), 2015).
Where “and” joins values, the source holds several entries; their conditions need not be identical. Equal values may be shown once.

Legend:
[1] = milogP calculated using Molinspiration Cheminformatics; conditions: Table SI14
[2] = log P determination by 19F NMR shake-flask method with internal fluorinated reference (octanol/water)
[3] = error (mean logP to three decimals)
[4] = octanol/water, Average logP, 25 °C, reference TFE (+0.36)
[5] = octanol/water, error (mean logP to three decimals), reference TFE (+0.36)
[6] = octanol/water, logP, 19F NMR, 25 °C, average value
[7] = octanol/water, logP, single experiment, reference TFE (+0.36)
[8] = octanol/water, Average logP, reference 4,4,4-trifluoro-1-butanol (TB, +0.91EXP)
[9] = octanol/water, error (mean logP to three decimals), reference TB (+0.91EXP)
[10] = octanol/water, logP, single experiment, reference 4,4,4-trifluoro-1-butanol (TB, +0.91EXP)
[11] = single experiment, reference TFE (+0.36)
[12] = Average logP, 25 °C, reference TFE (+0.36)
[13] = logP, octanol/water, 19F NMR, 25 °C, average value
[14] = logP, single experiment, reference TFE (+0.36)

| SMILES | ΔlogP (milogP vs logP exp) [1] | logP [2, 4] | logP [2, 5] | logP [2, 6] | logP [2, 7] | also measured |
| --- | --- | --- | --- | --- | --- | --- |
| CC(O)C(F)(F)C(F)(F)F (stereo not drawn) [compound 20] |  |  |  |  |  | logP (physchem; Average logP): 1.53; logP (physchem; [3]): 1.53; logP (physchem; logP): 1.53 |
| CC(O)CC(F)(F)F (stereo not drawn) [compound 18] | +0.53 | 0.72 | 0.721 | 0.71 | 0.725 | ΔlogP (exp. logP vs logP lit) ([2]; Table SI12): +0.01 |
| CCCC(F)CO (stereo not drawn) [compound 33, 2-fluoropentan-1-ol] |  | 0.87 | 0.868 |  | 0.872 | logP ([2]; multiple acquisitions of one sample (Table SI7), single acquisition, reference 2,2,2-trifluoroethanol): 0.5206 and 0.5160 and 0.5224 and 0.5294 and 0.5210 and 0.5213; logP ([2]; multiple reprocessing of one FID (Table SI8), single reprocessing): 0.5205 and 0.5167 and 0.5166 and 0.5215 and 0.5186; logP ([2]; octanol/water, logP Average, seven acquisitions (Table SI7)): 0.521; logP ([2]; octanol/water, logP Average, seven reprocessings (Table SI8)): 0.518; logP ([2]; octanol/water, logP, multiple acquisitions of one sample (Table SI7), single acquisition, reference 2,2,2-trifluoroethanol): 0.517; logP ([2]; octanol/water, logP, multiple reprocessing of one FID (Table SI8), single reprocessing): 0.513 |
| OCCC(F)F [compound 10] | +0.48 | 0.04 | 0.038 |  | 0.033 |  |
| C[C@H](O)C[C@H](C)F [compound 27] | +0.40 | 0.57 | 0.569 | 0.57 | 0.57 |  |
| CC[C@H](O)C[C@H](F)CC [compound 37] | +0.40 |  |  | 1.58 |  | logP [2, 8]: 1.58; logP [2, 9]: 1.58; logP [2, 10]: 1.58 |
| OC[C@@H](F)[C@@H](F)CO [compound 40] | +0.59 |  |  |  |  | logP ([2]; octanol/water, Average logP, 25 °C, reference FE (-0.75)): -0.97; logP ([2]; octanol/water, Average logP, internal validation, reference -1.01EXP): -0.98; logP ([2]; octanol/water, error (mean logP to three decimals), internal validation, reference -1.01EXP): -0.98; logP ([2]; octanol/water, error (mean logP to three decimals), reference FE (-0.75)): -0.968; logP ([2]; single experiment, internal validation, reference -1.01EXP): -0.981 and -0.984 and -0.975; logP ([2]; single experiment, reference FE (-0.75)): -0.957 |
| CC(O)CCF (stereo not drawn) [compound 16] |  |  |  |  |  | logP (physchem; Average logP): 0.08; logP (physchem; [3]): 0.084; logP (physchem; logP): 0.077 |
| OCCCC(F)(F)C(F)F [compound 34, 4,4,5,5-tetrafluoropentan-1-ol] |  |  |  |  |  | logP (physchem; Average logP): 0.97; logP (physchem; [3]): 0.974; logP (physchem; logP): 0.971 |
| CC(O)CC(C)(F)F (stereo not drawn) [compound 28] | +0.67 | 0.66 | 0.662 |  | 0.659 |  |
| CC(C)(C)[C@H]1CC[C@H](O)[C@@H](F)C1 (relative stereo) [compound 43] |  |  |  | 2.61 |  |  |
| CC(O)C(F)(F)C(F)F (stereo not drawn) [compound 19] |  |  |  |  |  | logP (physchem; Average logP): 1.05; logP (physchem; [3]): 1.05; logP (physchem; logP): 1.05 |
| OC[C@H]1OC(O)C[C@@H](F)[C@@H]1O (stereo partly drawn) [compound 51, 2,3-Dideoxy-3-fluoro-D-glucopyranose] |  |  |  | -1.45 |  |  |
| OC[C@H]1OC(O)C(F)(F)C(F)(F)[C@H]1O (stereo partly drawn) [compound 53, 2,3-Dideoxy-2,2,3,3-tetrafluoro-D-threo-hexopyranose] | +0.07 | -0.58 | -0.576 |  |  | logP [2, 11]: -0.574 and -0.573 and -0.583 |
| CC(F)(F)CO [compound 11] | +0.59 | 0.11 | 0.11 | 0.11 | 0.113 |  |
| OC(CF)CF [compound 4] |  |  |  |  |  | logP (physchem; [12]): -0.42; logP (physchem; [3]): -0.421; logP (physchem; [13]): -0.42; logP (physchem; [14]): -0.42; Average logP ([2]; 25 °C, reference TFE (+0.36)): -0.42 |
| O=C[C@H](O)[C@@H](F)[C@@H](O)[C@H](O)CO [compound 46, 3-Fluoro-3-deoxy-D-galactose] | +0.32 |  |  | -2.47 |  |  |
| CCCC(O)C(F)(F)F (stereo not drawn) [compound 29, 1,1,1-trifluoropentan-2-ol] |  | 1.82 | 1.82 |  | 1.83 |  |
| C[C@H](O)C[C@@H](C)F [compound 26] | +0.49 | 0.48 | 0.477 |  | 0.476 | logP [2, 11]: +0.476 |
| CC(O)CC(F)F (stereo not drawn) [compound 17] | +0.46 | 0.42 | 0.417 | 0.42 | 0.42 |  |
| CC(F)CCO (stereo not drawn) [compound 22, 3-fluorobutan-1-ol] |  | 0.17 | 0.173 |  | 0.166 |  |

| SMILES | ΔlogP (milogP vs logP exp) [1] | logP [2, 4] | logP [2, 5] | logP [2, 6] | logP [2, 7] | also measured |
| --- | --- | --- | --- | --- | --- | --- |
| O=C[C@@H](F)[C@@H](O)[C@H](O)[C@H](O)CO [compound 50, 2-Fluoro-2-deoxy-D-mannose] |  |  |  | -2.11 |  |  |
| O=C[C@H](F)[C@@H](O)[C@H](O)[C@H](O)CO [compound 49, 2-Fluoro-2-deoxy-D-glucose] | +0.28 |  |  | -2.21 |  |  |
| OCCC(F)(F)C(F)(F)F [compound 24] |  |  |  |  |  | logP (physchem; Average logP): 1.3; logP (physchem; [3]): 1.3; logP (physchem; logP): 1.29 |
| CC[C@H](O)C[C@@H](F)CC [compound 38] | +0.27 |  |  | 1.71 |  | logP [2, 8]: 1.71; logP [2, 9]: 1.71; logP [2, 10]: 1.69 |
| OCCCCCF [compound 30, 5-fluoro-1-pentanol] |  |  |  |  |  | logP (physchem; Average logP): 0.52; logP (physchem; [3]): 0.524; logP (physchem; logP): 0.524 |
| O=C[C@H](O)[C@@H](O)[C@H](O)[C@H](O)CF [compound 48, 6-Fluoro-6-deoxy-D-glucose] | +0.65 |  |  | -2.36 |  |  |
| O=C[C@H](F)[C@@H](O)[C@@H](O)[C@H](O)CO [compound 47, 2-Fluoro-2-deoxy-D-galactose] | +0.44 |  |  | -2.37 |  |  |
| CC(F)CCCO (stereo not drawn) [compound 31, 4-fluoropentan-1-ol] |  | 0.52 | 0.522 |  | 0.517 |  |
| CC(C)(C)[C@H]1CC[C@H](O)[C@H](F)C1 (relative stereo) [compound 42] | +0.07 |  |  | 2.63 |  |  |
| OCC(F)(F)C(F)(F)CO [compound 41] |  |  |  |  |  | logP (physchem; Average logP): -0.11; logP (physchem; [3]): -0.109 |
| CC(C)(C)[C@H]1CC[C@@H](O)[C@H](F)C1 (relative stereo) [compound 44] | -0.51 |  |  | 3.21 |  |  |
| OC[C@H]1OC(O)[C@H](F)[C@@H](F)[C@@H]1O (stereo partly drawn) [compound 52, 2,3-Dideoxy-2,3-difluoro-D-glucopyranose] |  |  |  | -1.11 |  | logP ([2]; octanol/water, log P units more lipophilic than Glc, relative to glucose): ~2.1; logP ([2]; octanol/water, logP, single experiment, reference FE (-0.75)): -1.11 |
| CC(C)(O)C(F)(F)F [compound 14] | +0.39 | 1.03 | 1.03 |  | 1.03 |  |
| CC(C)(C)C1CCC(O)CC1F (stereo not drawn) [compound 45] |  |  |  | 2.23 |  |  |
| OC[C@H]1OC(O)C(F)(F)C(F)(F)[C@@H]1O (stereo partly drawn) [compound 54, 2,3-Dideoxy-2,2,3,3-tetrafluoro-D-erythro-hexopyranose] |  | -0.32 |  |  | -0.316 |  |
| CC(O)(C(F)(F)F)C(F)(F)F [compound 15] |  |  |  |  |  | logP (physchem; [3]): 2.08; logP (physchem; logP): 2.08 |
| OCCCCF [compound 21] |  |  |  |  |  | logP (physchem; [12]): 0.09; logP (physchem; error (mean logP to three decimals), reference TFE (+0.36)): 0.09; logP (physchem; logP): 0.092; logP (physchem; [13]): 0.09; logP (physchem; [14]): 0.09 |
| CC(F)(F)CCCO [compound 32, 4,4-difluoropentan-1-ol] |  | 0.71 | 0.708 |  | 0.712 | logP [2, 11]: +0.712 |
| OCC(F)(F)F [compound 3, 2,2,2-Trifluoroethanol] | +0.25 |  |  |  |  |  |
| OCCCC(F)(F)C(F)(F)F [compound 36] |  |  |  |  |  | logP (physchem; Average logP): 1.72; logP (physchem; [3]): 1.72; logP (physchem; logP): 1.73 |
